# Assay results reported in patent US7456197B2, “Pyridinium cationic lipids as gene transfer agents” (The Texas A&M University System, priority 2003, dated 2008).
# Entries after “also recorded” stand apart in the source; their conditions may differ.
# Experiments:
# [1] = test system: prostate carcinoma DU-145; assay: Luciferase (pGL3) transfection efficiency of lipoplexes, DU-145; format: cell-based; conditions: optimized lipoplexes, Chol 1:1, FIG. 7
# Excerpt: (§1) It is well known that specific cell types and cell lines may vary in their ability to be transfected. In addition to the NCI-H23 lung cancer cell line, we therefore tested our optimized formulation of 5AMyr/Chol 1:1 versus DOTAP/Chol 1:1 as reference on four other cell lines from tumors representing cancers of great importance to human health, as well as different tissues of origin: breast carcinomas MCF-7, MDA-Mb231, prostate carcinoma DU-145 and glioma SWB-95 (FIG. 7).
# (§2) Dioleoylphosphatidylethanolamine (DOPE), cholesterol (CHOL), N-(2,3-dioleoyloxypropyl)-N,N,N-trimethylammonium chloride (DOTAP) were commercial products. The purity of the lipids was checked by thin layer chromatography and also by differential scanning calorimetry (DSC), which was also used for determining the critical temperature Tc. For the preparation of the liposomes a protocol optimized for this type of compounds was adopted as follows. The cationic lipid (with or without helper lipid) was dissolved in chloroform/methanol (2/1, v/v) to reach a final concentration of 1 mM for the charged species. […]
# (§3) For the luciferase assay, 20 μL of cell lysate was aliquoted in a test tube and assessed directly using a luciferase assay kit from Promega by means of a luminometer.
# (§4) The protein content was quantified using a bicinchoninic acid (BCA) assay. […]
# cancer cell line NCI-H23 = assay: WST-1 viability assay of transfected cells; format: cell-based, human
# Description: FIG. 6. Viability assay results for the cancer cell line NCI-H23 transfected with 5AMyr-5EMyr and DOTAP (Cl^−)-based lipoplexes. The other characteristics were the same as in the transfection experiment represented in FIG. 5.
# In order to assess the cytotoxicity associated with every anion, a WST-1^28 viability assay was conducted in parallel.
# [2] = test system: breast carcinoma MDA-Mb231; assay: Luciferase (pGL3) transfection efficiency of lipoplexes, MDA-Mb231; format: cell-based; conditions: optimized lipoplexes, Chol 1:1, FIG. 7
# Excerpt: as §1, §2, §3, §4
# [3] = Critical (phase transition) temperature Tc by differential scanning calorimetry; format: physicochemical
# Method in brief: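 Phase transition temperature Tc of the cationic lipids measured by differential scanning calorimetry at a heating rate of 5 °C/minute.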
compound,measurement,setting,value
"CCCCCCCCCCCCCC(=O)OCC(COC(=O)CCCCCCCCCCCCC)[n+]1c(C)cc(C)cc1C.F[P-](F)(F)(F)(F)F [Lipid 5AMyr, 1-(1,3-dimyristoyloxypropane-2-yl)-2,4,6-trimethylpyridinium hexafluorophosphate]",transfection efficiency (luciferase activity normalized for protein),[1],327 RLU/μg of protein
same,cytotoxicity (WST-1 viability),"cancer cell line NCI-H23; NCI-H23 transfected with lipoplexes, Chol 1:1, FIG. 6",minimum cytotoxicity; also recorded: lower cytotoxic effect
same,cytotoxic effect on longer cell exposure to lipoplexes,"cancer cell line NCI-H23; exposure from one hour to three hours, data not shown",without any visible cytotoxic effect
same,transfection efficiency (luciferase activity normalized for protein),[2],2950 RLU/μg of protein
same,"Tc (critical temperature), Pure",[3]; pure lipid,67.8 °C
same,"Tc (critical temperature), With DOPE (1:1 molar ratio)","[3]; with DOPE, 1:1 molar ratio",22.4 °C
same,"Tc (critical temperature), With cholesterol (1:1 molar ratio)","[3]; with cholesterol, 1:1 molar ratio",64.8 °C
